How the values were obtained:
Type in all cases: in vivo
[1] = tested on: barnyardgrass (Echinochloa crus-galli L.): ECHCG; test: Test Example 1 pre-emergence herbicidal activity, ECHCG; conditions: visually observed 20th to 23rd day after application
In short: (§1)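 Herbicidal effect in pre-emergence treatment: formulated compound sprayed at 500 L/ha water one day after sowing in upland field soil pots, with visual 0–100% growth-control scores recorded 20–23 days after application.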

[2] = tested on: crabgrass (Digitaria sanguinalis L.): DIGSA; test: Test Example 1 pre-emergence herbicidal activity, DIGSA; conditions: visually observed 20th to 23rd day after application
In short: as §1

[3] = tested on: green foxtail (Setaria viridis L.): SETVI; test: Test Example 1 pre-emergence herbicidal activity, SETVI; conditions: visually observed 20th to 23rd day after application
In short: as §1

[4] = tested on: redroot pigweed (Amaranthus retroflexus L.): AMARE; test: Test Example 1 pre-emergence herbicidal activity, AMARE; conditions: visually observed 20th to 23rd day after application
In short: as §1

[5] = tested on: prickly sida (Sida spinosa L.): SEDSP; test: Test Example 1 pre-emergence herbicidal activity, SIDSP; conditions: visually observed 20th to 23rd day after application
In short: as §1

[6] = tested on: velvetleaf (Abutilon theophrasti): ABUTH; test: Test Example 1 pre-emergence herbicidal activity, ABUTH; conditions: visually observed 20th to 23rd day after application
In short: as §1

[7] = tested on: rice (Oryza sativa L.): ORYSA; test: Test Example 1 pre-emergence herbicidal activity, ORYSA; conditions: visually observed 20th to 23rd day after application
In short: as §1

[8] = tested on: wheat (Triticum aestivum L.): TRZAX; test: Test Example 1 pre-emergence herbicidal activity, TRZAX; conditions: visually observed 20th to 23rd day after application
In short: as §1

[9] = tested on: corn (Zea mays L.): ZEAMX; test: Test Example 1 pre-emergence herbicidal activity, ZEAMX; conditions: visually observed 20th to 23rd day after application
In short: as §1

[10] = tested on: soybean (Glycine max Merr.): GLXMA; test: Test Example 1 pre-emergence herbicidal activity, GLXMA; conditions: visually observed 20th to 23rd day after application
In short: as §1

[11] = tested on: barnyardgrass (Echinochloa crus-galli L.), ECHCG; test: Test Example 2 post-emergence (foliage treatment) herbicidal activity, ECHCG; conditions: 63 g a.i./ha
In short: (§2)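 A small sprayer delivered the diluted WP or EC formulation (500 L/ha water, 0.1% v/v spreader) over emerged seedlings in upland soil pots. Damage relative to untreated plants was graded visually from 0 to 100% three weeks or so later (days 20-23).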

[12] = tested on: crabgrass (Digitaria sanguinalis L.), DIGSA; test: Test Example 2 post-emergence (foliage treatment) herbicidal activity, DIGSA; conditions: 63 g a.i./ha
In short: as §2

[13] = tested on: green foxtail (Setaria viridis L.), SETVI; test: Test Example 2 post-emergence (foliage treatment) herbicidal activity, SETVI; conditions: 63 g a.i./ha
In short: (§3)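 Foliar spray of formulated compound (500 L/ha dilution water, 0.1% v/v spreader) onto young potted plants at defined leaf stages. Scored 0-100% by visual inspection 20-23 d post-spray.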

[14] = tested on: redroot pigweed (Amaranthus retroflexus L.), AMARE; test: Test Example 2 post-emergence (foliage treatment) herbicidal activity, AMARE; conditions: 63 g a.i./ha
In short: as §2

[15] = tested on: prickly sida (Sida spinosa L.), SIDSP; test: Test Example 2 post-emergence (foliage treatment) herbicidal activity, SIDSP; conditions: 63 g a.i./ha
In short: as §3

[16] = tested on: velvetleaf (Abutilon theophrasti), ABUTH; test: Test Example 2 post-emergence (foliage treatment) herbicidal activity, ABUTH; conditions: 63 g a.i./ha
In short: as §3

[17] = tested on: rice (Oryza sativa L.), ORYSA; test: Test Example 2 post-emergence (foliage treatment) herbicidal activity, ORYSA; conditions: 63 g a.i./ha
In short: as §2

[18] = tested on: wheat (Triticum aestivum L.), TRZAX; test: Test Example 2 post-emergence (foliage treatment) herbicidal activity, TRZAX; conditions: 63 g a.i./ha
In short: as §3

[19] = tested on: corn (Zea mays L.), ZEAMX; test: Test Example 2 post-emergence (foliage treatment) herbicidal activity, ZEAMX; conditions: 63 g a.i./ha
In short: as §3

[20] = tested on: soybean (Glycine max Merr.), GLXMA; test: Test Example 2 post-emergence (foliage treatment) herbicidal activity, GLXMA; conditions: 63 g a.i./ha
In short: as §3

[21] = tested on: barnyardgrass (Echinochiloa oryzicola: ECHOR); test: Test Example 3 water application herbicidal activity (paddy), ECHOR; conditions: 63 g a.i./ha, water application under submerged condition at 0.5 leaf stage, visually observed 14th day after application; 0 = untreated control, 100 = complete kill
In short: (§4)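 Flooded paddy-soil pots in greenhouse; ECHOR and SCPJO sown, SAGPY tubers planted a day later, compound applied into 3–4 cm water at weeds' 0.5-leaf stage. Rice transplanted at 2-leaf stage, treated day 4 after transplanting. Visual growth control 0–100% at 14 days (weeds) and 21 days (rice) after application.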

[22] = tested on: japanese bulrush (Scirpus juncoides: SCPJO); test: Test Example 3 water application herbicidal activity (paddy), SCPJO; conditions: 63 g a.i./ha, water application under submerged condition at 0.5 leaf stage, visually observed 14th day after application; 0 = untreated control, 100 = complete kill
In short: as §4

[23] = tested on: japanese ribbon wapato (Sagittaria pygmaea: SA GPY); test: Test Example 3 water application herbicidal activity (paddy), SAGPY; conditions: 63 g a.i./ha, water application under submerged condition, tubers planted, visually observed 14th day after application; 0 = untreated control, 100 = complete kill
In short: as §4

[24] = tested on: rice (Oryza sativa L.: ORYSA); test: Test Example 3 water application herbicidal activity (paddy), transplanted rice ORYSA; conditions: 63 g a.i./ha, water application 4th day after transplantation of 2 leaf stage rice, visually observed 21st day after application; 0 = untreated control, 100 = complete kill
In short: as §4

Row | SMILES | Pre-emergence Herbicidal Activity ECHCG (growth controlling degree) ([1]; Rate 63 g a.i./ha) [%] | Pre-emergence Herbicidal Activity DIGSP (growth controlling degree) ([2]; Rate 63 g a.i./ha) [%] | Pre-emergence Herbicidal Activity SETVI (growth controlling degree) ([3]; Rate 63 g a.i./ha) [%] | Pre-emergence Herbicidal Activity AMARE (growth controlling degree) ([4]; Rate 63 g a.i./ha) [%] | Pre-emergence Herbicidal Activity SIDSP (growth controlling degree) ([5]; Rate 63 g a.i./ha) [%] | Pre-emergence Herbicidal Activity ABUTH (growth controlling degree) ([6]; Rate 63 g a.i./ha) [%] | growth controlling degree, ECHCO [11] [%] | growth controlling degree, DIGSP [12] [%] | growth controlling degree, SETVI [13] [%] | growth controlling degree, AMARE [14] [%] | growth controlling degree, SIDSP [15] [%] | growth controlling degree, ABUTH [16] [%] | growth controlling degree, ORYSA [17] [%] | growth controlling degree, TRZAX [18] [%] | growth controlling degree, ZEAMX [19] [%] | growth controlling degree, GLXMA [20] [%] | growth controlling degrees (%) ECHOR [21] [%] | growth controlling degrees (%) SCPJO [22] [%] | growth controlling degrees (%) SAGPY [23] [%] | growth controlling degrees (%) ORYSA [24] [%] | other results
1 | COc1c(Cl)cc(F)c(-c2nn(C)c(OC(F)F)c2Cl)c1NC(=O)OCc1ccccc1Cl [Compound 1-63] | 30 | 40 | 30 | 100 | 20 | 30 | 100 | 90 | 100 | 100 | 100 | 100 | 60 | 40 | 70 | 60 | 100 | 70 | 70 | 40 | Pre-emergence Herbicidal Activity ORYSA (growth controlling degree) ([7]; Rate 63 g a.i./ha): 0%; Pre-emergence Herbicidal Activity TRZAX (growth controlling degree) ([8]; Rate 63 g a.i./ha): 10%; Pre-emergence Herbicidal Activity ZEAMX (growth controlling degree) ([9]; Rate 63 g a.i./ha): 0%; Pre-emergence Herbicidal Activity GLXMA (growth controlling degree) ([10]; Rate 63 g a.i./ha): 0%
2 | COc1ccc(OC(=O)N(C(=O)Oc2ccc(OC)cc2)c2c(OC)c(Cl)cc(F)c2-c2nn(C)c(OC(F)F)c2Cl)cc1 [Compound 1-65] |  |  |  |  |  |  | 0 | 0 | 0 | 10 | 0 | 0 | 0 | 0 | 0 | 10 | 50 | 0 | 0 | 20 | Pre-emergence Herbicidal Activity ECHCG (growth controlling degree) ([1]; Rate 125 g a.i./ha): 0%; Pre-emergence Herbicidal Activity DIGSP (growth controlling degree) ([2]; Rate 125 g a.i./ha): 0%; Pre-emergence Herbicidal Activity SETVI (growth controlling degree) ([3]; Rate 125 g a.i./ha): 10%; Pre-emergence Herbicidal Activity AMARE (growth controlling degree) ([4]; Rate 125 g a.i./ha): 20%; Pre-emergence Herbicidal Activity SIDSP (growth controlling degree) ([5]; Rate 125 g a.i./ha): 10%; Pre-emergence Herbicidal Activity ABUTH (growth controlling degree) ([6]; Rate 125 g a.i./ha): 10%; Pre-emergence Herbicidal Activity ORYSA (growth controlling degree) ([7]; Rate 125 g a.i./ha): 0%; Pre-emergence Herbicidal Activity TRZAX (growth controlling degree) ([8]; Rate 125 g a.i./ha): 0%; Pre-emergence Herbicidal Activity ZEAMX (growth controlling degree) ([9]; Rate 125 g a.i./ha): 0%; Pre-emergence Herbicidal Activity GLXMA (growth controlling degree) ([10]; Rate 125 g a.i./ha): 0%
3 | Cn1nc(-c2c(F)cc(Cl)c(OC(F)F)c2NC=O)c(Cl)c1OC(F)F [Compound 1-82] | 100 | 100 | 100 | 100 | 100 | 100 | 100 | 100 | 100 | 100 | 100 | 100 | 70 | 60 | 70 | 90 | 100 | 98 | 100 | 60 | Pre-emergence Herbicidal Activity ORYSA (growth controlling degree) ([7]; Rate 63 g a.i./ha): 80%; Pre-emergence Herbicidal Activity TRZAX (growth controlling degree) ([8]; Rate 63 g a.i./ha): 60%; Pre-emergence Herbicidal Activity ZEAMX (growth controlling degree) ([9]; Rate 63 g a.i./ha): 40%; Pre-emergence Herbicidal Activity GLXMA (growth controlling degree) ([10]; Rate 63 g a.i./ha): 10%
4 | Cn1nc(-c2c(F)cc(Cl)c(OC(F)F)c2NC(=O)C(F)(F)F)c(Cl)c1OC(F)F [Compound 1-83] | 90 | 100 | 100 | 100 | 100 | 80 | 100 | 100 | 100 | 100 | 100 | 100 | 50 | 10 | 80 | 60 | 100 | 95 | 80 | 50 | Pre-emergence Herbicidal Activity ORYSA (growth controlling degree) ([7]; Rate 63 g a.i./ha): 60%; Pre-emergence Herbicidal Activity TRZAX (growth controlling degree) ([8]; Rate 63 g a.i./ha): 10%; Pre-emergence Herbicidal Activity ZEAMX (growth controlling degree) ([9]; Rate 63 g a.i./ha): 20%; Pre-emergence Herbicidal Activity GLXMA (growth controlling degree) ([10]; Rate 63 g a.i./ha): 60%
